BindingDB's records for doi:10.1021/jm960541s (Upjohn, 1996)

Target: T1, Dimer of Gag-Pol polyprotein [489-587] (Human immunodeficiency virus 1, UniProt P04585)
T1 construct: 489-587
Test: Protease Inhibition Assay
Conditions: pH 5; 22 °C
Description: (§1) HIV-1 protease was purified and refolded from E. coli inclusion bodies. The substrate used spans the p17-p24 processing site (R-V-S-Q-N-Y-P-I-V-Q-N-K) and was derivatized with biotin and fluorescein isothiocyanate (FITC) at the amino and carboxy termini. In the presence of HIV-l protease, the substrate is rapidly cleaved into two parts. The biotinylated amino terminal fragment binds to the avidin beads while the FITC-containing carboxy1 terminal fragment is removed through the membrane. […] The bound fluorescence is obtained by processing on an IDEXX Screen Machine. Determination of Ki values with this assay requires analysis under conditions in which substrate concentration resides substantially below Km and the inhibitor concentrations greatly exceeds the Ki value and the enzyme concentration.

Row | Structure (SMILES) | Ki [pM]
1 | CCC[C@@]1(CCc2ccccc2)CC(=O)C([C@H](CC)c2cccc(NS(=O)(=O)c3ccc(C#N)cn3)c2)C(=O)O1 (stereo partly drawn) [5-cyano-N-{3-[(1R)-1-[(6R)-4-hydroxy-2-oxo-6-(2-phenylethyl)-6-propyl-5,6-dihydro-2H-pyran-3-yl]propyl]phenyl}pyridine-2-sulfonamide] | 7
2 | CCC[C@]1(CCc2ccccc2)CC(=O)C([C@H](CC)c2cccc(NS(=O)(=O)c3ccc(C#N)cn3)c2)C(=O)O1 (stereo partly drawn) [5-cyano-N-{3-[(1R)-1-[(6S)-4-hydroxy-2-oxo-6-(2-phenylethyl)-6-propyl-5,6-dihydro-2H-pyran-3-yl]propyl]phenyl}pyridine-2-sulfonamide] | 40
3 | CCC[C@@]1(CCc2ccccc2)CC(=O)C([C@@H](CC)c2cccc(NS(=O)(=O)c3ccc(C#N)cn3)c2)C(=O)O1 (stereo partly drawn) [5-cyano-N-{3-[(1S)-1-[(6R)-4-hydroxy-2-oxo-6-(2-phenylethyl)-6-propyl-5,6-dihydro-2H-pyran-3-yl]propyl]phenyl}pyridine-2-sulfonamide] | 100
4 | CCC[C@]1(CCc2ccccc2)CC(=O)C([C@@H](CC)c2cccc(NS(=O)(=O)c3ccc(C#N)cn3)c2)C(=O)O1 (stereo partly drawn) [5-cyano-N-{3-[(1S)-1-[(6S)-4-hydroxy-2-oxo-6-(2-phenylethyl)-6-propyl-5,6-dihydro-2H-pyran-3-yl]propyl]phenyl}pyridine-2-sulfonamide] | 120
5 | CCC[C@@]1(CCc2ccccc2)CC(=O)C([C@H](CC)c2cccc(NS(=O)(=O)c3cn(C)cn3)c2)C(=O)O1 (stereo partly drawn) [N-{3-[(1R)-1-[(6R)-4-hydroxy-2-oxo-6-(2-phenylethyl)-6-propyl-5,6-dihydro-2H-pyran-3-yl]propyl]phenyl}-1-methyl-1H-imidazole-4-sulfonamide] | 60
6 | CCC[C@@]1(CCc2ccccc2)CC(=O)C([C@H](CC)c2cccc(NS(=O)(=O)c3ccc(C(F)(F)F)cn3)c2)C(=O)O1 (stereo partly drawn) [N-{3-[(1R)-1-[(6R)-4-hydroxy-2-oxo-6-(2-phenylethyl)-6-propyl-5,6-dihydro-2H-pyran-3-yl]propyl]phenyl}-5-(trifluoromethyl)pyridine-2-sulfonamide] | 8
7 | CCC[C@]1(CCc2ccccc2)CC(=O)C([C@H](CC)c2cccc(NS(=O)(=O)c3cn(C)cn3)c2)C(=O)O1 (stereo partly drawn) [N-{3-[(1R)-1-[(6S)-4-hydroxy-2-oxo-6-(2-phenylethyl)-6-propyl-5,6-dihydro-2H-pyran-3-yl]propyl]phenyl}-1-methyl-1H-imidazole-4-sulfonamide] | 120
8 | CCC[C@]1(CCc2ccccc2)CC(=O)C([C@H](CC)c2cccc(NS(=O)(=O)c3ccc(C(F)(F)F)cn3)c2)C(=O)O1 (stereo partly drawn) [N-{3-[(1R)-1-[(6S)-4-hydroxy-2-oxo-6-(2-phenylethyl)-6-propyl-5,6-dihydro-2H-pyran-3-yl]propyl]phenyl}-5-(trifluoromethyl)pyridine-2-sulfonamide] | 18
9 | CCC[C@@]1(CCc2ccccc2)CC(=O)C([C@@H](CC)c2cccc(NS(=O)(=O)c3cn(C)cn3)c2)C(=O)O1 (stereo partly drawn) [N-{3-[(1S)-1-[(6R)-4-hydroxy-2-oxo-6-(2-phenylethyl)-6-propyl-5,6-dihydro-2H-pyran-3-yl]propyl]phenyl}-1-methyl-1H-imidazole-4-sulfonamide] | 300
10 | CCC[C@@]1(CCc2ccccc2)CC(=O)C([C@@H](CC)c2cccc(NS(=O)(=O)c3ccc(C(F)(F)F)cn3)c2)C(=O)O1 (stereo partly drawn) [N-{3-[(1S)-1-[(6R)-4-hydroxy-2-oxo-6-(2-phenylethyl)-6-propyl-5,6-dihydro-2H-pyran-3-yl]propyl]phenyl}-5-(trifluoromethyl)pyridine-2-sulfonamide] | 32
11 | CCC[C@]1(CCc2ccccc2)CC(=O)C([C@@H](CC)c2cccc(NS(=O)(=O)c3cn(C)cn3)c2)C(=O)O1 (stereo partly drawn) [N-{3-[(1S)-1-[(6S)-4-hydroxy-2-oxo-6-(2-phenylethyl)-6-propyl-5,6-dihydro-2H-pyran-3-yl]propyl]phenyl}-1-methyl-1H-imidazole-4-sulfonamide] | 1000
12 | CCC[C@]1(CCc2ccccc2)CC(=O)C([C@@H](CC)c2cccc(NS(=O)(=O)c3ccc(C(F)(F)F)cn3)c2)C(=O)O1 (stereo partly drawn) [N-{3-[(1S)-1-[(6S)-4-hydroxy-2-oxo-6-(2-phenylethyl)-6-propyl-5,6-dihydro-2H-pyran-3-yl]propyl]phenyl}-5-(trifluoromethyl)pyridine-2-sulfonamide] | 220

Target: T2, Dimer of Gag-Pol polyprotein [489-587] (Human immunodeficiency virus 1, UniProt P12497)
T2 construct: 489-587
Test: Protease Inhibition Assay
Conditions: pH 5; 22 °C
Description: as §1

Row | Structure (SMILES) | Ki [pM]
13 | CCCC1(CCc2ccccc2)CC(=O)C(C(CC)c2cccc(NS(=O)(=O)c3ccc(C#N)cc3)c2)C(=O)O1 (configuration not stated) [4-cyano-N-(3-{1-[4-hydroxy-2-oxo-6-(2-phenylethyl)-6-propyl-5,6-dihydro-2H-pyran-3-yl]propyl}phenyl)benzene-1-sulfonamide] | 8000
14 | CCCC1(CCc2ccccc2)CC(=O)C(C(CC)c2cccc(NS(=O)(=O)c3ccc(F)cc3)c2)C(=O)O1 (configuration not stated) [4-fluoro-N-(3-{1-[4-hydroxy-2-oxo-6-(2-phenylethyl)-6-propyl-5,6-dihydro-2H-pyran-3-yl]propyl}phenyl)benzene-1-sulfonamide] | 6000
15 | CCCC1(CCc2ccccc2)CC(=O)C(C(CC)c2cccc(NS(=O)(=O)c3cn(C)cn3)c2)C(=O)O1 (configuration not stated) [N-(3-{1-[4-hydroxy-2-oxo-6-(2-phenylethyl)-6-propyl-5,6-dihydro-2H-pyran-3-yl]propyl}phenyl)-1-methyl-1H-imidazole-4-sulfonamide] | 1000
16 | CCCC1(CCc2ccccc2)CC(=O)C(C(CC)c2cccc(NS(=O)(=O)c3ccccc3)c2)C(=O)O1 (configuration not stated) [N-(3-{1-[4-hydroxy-2-oxo-6-(2-phenylethyl)-6-propyl-5,6-dihydro-2H-pyran-3-yl]propyl}phenyl)benzenesulfonamide] | 17000
17 | CCCC1(CCc2ccccc2)CC(=O)C(C(CC)c2cccc(NS(=O)(=O)c3cccc4cccnc34)c2)C(=O)O1 (configuration not stated) [N-(3-{1-[4-hydroxy-2-oxo-6-(2-phenylethyl)-6-propyl-5,6-dihydro-2H-pyran-3-yl]propyl}phenyl)quinoline-8-sulfonamide] | 3000
